Target: Beta-2 adrenergic receptor (Rattus norvegicus) (UniProt P10608)
Test: Compound was evaluated for its binding affinity to beta-2 receptor in rat brain using [3H]- DHA radioligand assay

Chain of Beta-2 adrenergic receptor (Rattus norvegicus) (P10608 whole entry, looked up): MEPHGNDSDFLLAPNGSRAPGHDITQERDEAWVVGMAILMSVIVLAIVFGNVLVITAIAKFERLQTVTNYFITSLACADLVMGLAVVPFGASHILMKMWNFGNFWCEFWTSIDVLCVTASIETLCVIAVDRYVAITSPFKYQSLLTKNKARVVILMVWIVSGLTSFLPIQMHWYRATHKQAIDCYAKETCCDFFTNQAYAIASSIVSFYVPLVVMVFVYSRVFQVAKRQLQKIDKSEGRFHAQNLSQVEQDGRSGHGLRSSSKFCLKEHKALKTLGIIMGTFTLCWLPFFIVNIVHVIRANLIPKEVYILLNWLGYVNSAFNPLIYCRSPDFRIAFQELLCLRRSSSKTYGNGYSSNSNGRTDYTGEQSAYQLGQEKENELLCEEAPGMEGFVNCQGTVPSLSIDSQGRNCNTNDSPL

Ki: 1740 nM
SMILES: COc1cccc2c1CCC[C@H]2CN(C)CCc1ccc2ccoc2c1 [A-80426]

— BindingDB's records for doi:10.1016/0960-894X(95)00398-D (1995)
